Columns and labels:
[1] = system: S. aureus ATCC 33591; test: MIC, NCCLS broth microdilution, S. aureus ATCC 33591; format: cell-based, Staphylococcus aureus
Method in brief: (§1)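 MICs determined by broth microdilution per NCCLS M7-A4 and M11-A4; antifungal testing followed NCCLS M27-T and the Manual of Clinical Microbiology method.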

[2] = system: C. albicans ATCC 38247; test: MIC, antifungal assay, C. albicans; format: cell-based, Candida albicans
Method in brief: as §1

[3] = system: S. pneumoniae ATCC 49619; test: MIC, NCCLS broth microdilution, S. pneumoniae; format: cell-based, Streptococcus pneumoniae
Method in brief: as §1

[4] = MIC, Table C (organism not given); format: cell-based
Protocol: (§2) Compounds according to this invention were screened for their in vitro activities against selected species of bacteria and fungi. The minimal inhibition concentration (MIC) of these compounds was determined using the National Committee for Clinical Laboratory Standards (NCCLS) broth microdilution assay in microtiter plates, as set forth in: (1) the guidelines of the National Committee for Clinical Laboratory Standards (NCCLS) Document M7-A4 (NCCLS, 1997); (2) the guidelines of the National Committee for Clinical Laboratory Standards (NCCLS) Document M11-A4 (NCCLS, 1997); and (3) the guidelines and reference method of the National Committee for Clinical Laboratory Standards (NCCLS) Document M27-T (NCCLS, 1995). For antifungal assays, the method recommended in Murray, P R., 1995 Manual of Clinical Microbiology (ASM Press, Washington, D.C.), was employed.
(§3) Additionally, some compounds were screened against Enterococcus faccium (ATCC 51559, a vancomycin resistant strain (VRE)), Staphylococcus epidermidis (ATCC 12228), Streptococcus pneumoniae (ATCC 51422, a penicillin resistant strain (PRSP)), and/or Streptococcus pyogenes (ATCC 49399).

[5] = system: E. faecium ATCC 51559; test: MIC, E. faecium VRE; format: cell-based, Enterococcus faccium; details: Table C; E. faecium ATCC 51559, vancomycin resistant strain (VRE)
Protocol: as §2, §3

[6] = system: E. faecalis ATCC 29212; test: MIC, NCCLS broth microdilution, E. faecalis; format: cell-based, Enterococcus faecalis
Method in brief: as §1

[7] = system: S. epidermidis ATCC 12228; test: MIC, S. epidermidis; format: cell-based, Staphylococcus epidermidis; details: Table C
Protocol: as §2, §3

[8] = system: B. cereus ATCC 11778; test: MIC, NCCLS broth microdilution, B. cereus; format: cell-based, Bacillus cereus
Method in brief: as §1

[9] = system: S. aureus ATCC 27660; test: MIC, NCCLS broth microdilution, S. aureus MRSA; format: cell-based, Staphylococcus aureus; details: S. aureus ATCC 27660, methicillin resistant strain (MRSA)
Method in brief: as §1

[10] = system: S. aureus ATCC 13709; test: MIC, NCCLS broth microdilution, S. aureus MSSA; format: cell-based, Staphylococcus aureus; details: S. aureus ATCC 13709, methicillin sensitive strain (MSSA)
Method in brief: as §1

[11] = system: S. pyogenes ATCC 4399; test: MIC, S. pyogenes; format: cell-based, Streptococcus pyogenes; details: Table C
Protocol: as §2, §3

[12] = system: S. pneumoniae ATCC 51422; test: MIC, S. pneumoniae PRSP; format: cell-based, Streptococcus pneumoniae; details: Table C; S. pneumoniae ATCC 51422, penicillin resistant strain (PRSP)
Protocol: as §2, §3

Cn1cc(NC(=O)c2cc(NC(=O)c3sccc3Cl)cn2CCCN2CCOCC2)cc1-c1nc2ccccc2[nH]1 [Compound A-50]
+++ (MIC ≦ 4 μg/mL): Minimum Inhibitory Concentration (MIC), organism F [1] | Minimum Inhibitory Concentration (MIC), organism G [3] | Minimum Inhibitory Concentration (MIC), organism C [6] | Minimum Inhibitory Concentration (MIC), organism A [8] | Minimum Inhibitory Concentration (MIC), organism E [9] | Minimum Inhibitory Concentration (MIC), organism D [10]
+++ (MIC ≦ 4 pg/mL): Minimum Inhibitory Concentration (MIC), organism E [4] | Minimum Inhibitory Concentration (MIC), organism A [5] | Minimum Inhibitory Concentration (MIC), organism B [7]
>32 µg/mL: Minimum Inhibitory Concentration (MIC), organism B [2]

Cn1cc(NC(=O)c2cc(NC(=O)c3sccc3Cl)cn2CCCO)cc1-c1nc2ccccc2[nH]1 [Compound A-48]
+++ (MIC ≦ 4 pg/mL): Minimum Inhibitory Concentration (MIC), organism E [4] | Minimum Inhibitory Concentration (MIC), organism A [5] | Minimum Inhibitory Concentration (MIC), organism B [7]
>32 µg/mL: Minimum Inhibitory Concentration (MIC), organism B [2]
+++ (MIC ≦ 4 μg/mL): Minimum Inhibitory Concentration (MIC), organism F [1] | Minimum Inhibitory Concentration (MIC), organism G [3] | Minimum Inhibitory Concentration (MIC), organism C [6] | Minimum Inhibitory Concentration (MIC), organism A [8] | Minimum Inhibitory Concentration (MIC), organism E [9] | Minimum Inhibitory Concentration (MIC), organism D [10]

Cn1cc(NC(=O)c2cc(NC(=O)c3ccc(Cl)cc3F)cn2CCCN2CCC(F)(F)CC2)cc1-c1nc2cccnc2[nH]1 [Compound A-43]
++ (4 < MIC < 12 μg/mL): Minimum Inhibitory Concentration (MIC), organism F [1] | Minimum Inhibitory Concentration (MIC), organism D [11] | Minimum Inhibitory Concentration (MIC), organism C [6] | Minimum Inhibitory Concentration (MIC), organism C [12] | Minimum Inhibitory Concentration (MIC), organism D [10]
>32 µg/mL: Minimum Inhibitory Concentration (MIC), organism B [2]
+++ (MIC ≦ 4 pg/mL): Minimum Inhibitory Concentration (MIC), organism E [4] | Minimum Inhibitory Concentration (MIC), organism A [5] | Minimum Inhibitory Concentration (MIC), organism B [7]
+++ (MIC ≦ 4 μg/mL): Minimum Inhibitory Concentration (MIC), organism G [3] | Minimum Inhibitory Concentration (MIC), organism A [8] | Minimum Inhibitory Concentration (MIC), organism E [9]

Cn1cc(NC(=O)c2cc3ccccc3cn2)cc1C(=O)Nc1cc(-c2nc3ccc(NC(=O)C(F)(F)F)cc3[nH]2)n(C)c1 [Compound A-5]
+++ (MIC ≦ 4 pg/mL): Minimum Inhibitory Concentration (MIC), organism E [4] | Minimum Inhibitory Concentration (MIC), organism A [5] | Minimum Inhibitory Concentration (MIC), organism B [7]
+++ (MIC ≦ 4 μg/mL): Minimum Inhibitory Concentration (MIC), organism F [1] | Minimum Inhibitory Concentration (MIC), organism G [3] | Minimum Inhibitory Concentration (MIC), organism C [6] | Minimum Inhibitory Concentration (MIC), organism A [8] | Minimum Inhibitory Concentration (MIC), organism E [9] | Minimum Inhibitory Concentration (MIC), organism D [10]
>32 µg/mL: Minimum Inhibitory Concentration (MIC), organism B [2]

COc1ccc2nc(-c3cc(NC(=O)c4cc(NC(=O)c5cc6ccccc6cn5)cn4C)cn3C)[nH]c2c1 [Compound A-4]
>32 µg/mL: Minimum Inhibitory Concentration (MIC), organism B [2]
+++ (MIC ≦ 4 pg/mL): Minimum Inhibitory Concentration (MIC), organism E [4] | Minimum Inhibitory Concentration (MIC), organism A [5] | Minimum Inhibitory Concentration (MIC), organism B [7]
+++ (MIC ≦ 4 μg/mL): Minimum Inhibitory Concentration (MIC), organism F [1] | Minimum Inhibitory Concentration (MIC), organism G [3] | Minimum Inhibitory Concentration (MIC), organism C [6] | Minimum Inhibitory Concentration (MIC), organism A [8] | Minimum Inhibitory Concentration (MIC), organism E [9] | Minimum Inhibitory Concentration (MIC), organism D [10]

Cn1cc(NC(=O)c2cc(NC(=O)c3sccc3Cl)cn2CCCN2CCSCC2)cc1-c1nc2ccccc2[nH]1 [Compound A-51]
+++ (MIC ≦ 4 pg/mL): Minimum Inhibitory Concentration (MIC), organism E [4] | Minimum Inhibitory Concentration (MIC), organism A [5] | Minimum Inhibitory Concentration (MIC), organism B [7]
>32 µg/mL: Minimum Inhibitory Concentration (MIC), organism B [2]
+++ (MIC ≦ 4 μg/mL): Minimum Inhibitory Concentration (MIC), organism F [1] | Minimum Inhibitory Concentration (MIC), organism G [3] | Minimum Inhibitory Concentration (MIC), organism C [6] | Minimum Inhibitory Concentration (MIC), organism A [8] | Minimum Inhibitory Concentration (MIC), organism E [9] | Minimum Inhibitory Concentration (MIC), organism D [10]

Cc1ccc2nc(-c3cc(NC(=O)c4cc(NC(=O)c5cc6ccccc6cn5)cn4C)cn3C)[nH]c2c1 [Compound A-2]
+++ (MIC ≦ 4 μg/mL): Minimum Inhibitory Concentration (MIC), organism F [1] | Minimum Inhibitory Concentration (MIC), organism G [3] | Minimum Inhibitory Concentration (MIC), organism C [6] | Minimum Inhibitory Concentration (MIC), organism A [8] | Minimum Inhibitory Concentration (MIC), organism E [9] | Minimum Inhibitory Concentration (MIC), organism D [10]
>32 µg/mL: Minimum Inhibitory Concentration (MIC), organism B [2]
+++ (MIC ≦ 4 pg/mL): Minimum Inhibitory Concentration (MIC), organism E [4] | Minimum Inhibitory Concentration (MIC), organism A [5] | Minimum Inhibitory Concentration (MIC), organism B [7]

Cn1cc(NC(=O)c2cc3ccccc3cn2)cc1C(=O)Nc1cc(-c2nc3ccc(Cl)cc3[nH]2)n(C)c1 [Compound A-7]
+++ (MIC ≦ 4 μg/mL): Minimum Inhibitory Concentration (MIC), organism F [1] | Minimum Inhibitory Concentration (MIC), organism G [3] | Minimum Inhibitory Concentration (MIC), organism C [6] | Minimum Inhibitory Concentration (MIC), organism A [8] | Minimum Inhibitory Concentration (MIC), organism E [9] | Minimum Inhibitory Concentration (MIC), organism D [10]
+++ (MIC ≦ 4 pg/mL): Minimum Inhibitory Concentration (MIC), organism E [4] | Minimum Inhibitory Concentration (MIC), organism A [5] | Minimum Inhibitory Concentration (MIC), organism B [7]
>32 µg/mL: Minimum Inhibitory Concentration (MIC), organism B [2]
